Literature values in patent US10959985B1, “Pharmaceutical compositions including carvedilol and methods of using the same” (ECI Pharmaceuticals, LLC, priority 2019, dated 2021).
Like-named read-outs stand apart in the source and are kept apart here.

Experiments:
[1] = tested on: mice
[2] = tested on: rats
[3] = tested on: humans

For `COc1ccccc1OCCNCC(O)COc1cccc2[nH]c3ccccc3c12` (racemic) [Carvedilol, (±) 1-(9H-carbazol-4-yloxy)-3-[[2(2-methoxyphenoxy)ethyl]amino]-2-propanol], the “intraperitoneal LD50” value ([1]; intraperitoneal) is given as 364 mg/kg, the “oral LDLO” value ([1]; oral) is given as 8 gm/kg and the solubility in water is given as “practically insoluble”. The “intraperitoneal LD50” value ([2]; intraperitoneal) was 769 mg/kg, the “oral LDLO” value ([2]; oral) was 8 gm/kg and the “oral TDLO” value ([3]; men) was 5.357 mg/kg. The “oral TDLO” value ([3]; women) was 12 mg/kg.
